These results are taken from PubChem BioAssay (NCI).

“And” between values parts separate entries of the source, which are not always exact repeats. Equal entries are not always repeated.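 1) Cells in 96-well plates. 2) Compound, 48 h, 5 concentrations. 3) Linear interpolation between surrounding doses. 4) Unreached endpoint = highest concentration. At the GI50, growth is halved. At the TGI there is no net growth.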 A value given as a limit tells only on which side of the number the result lay.

What all share (experiment): growth of human tumour cells (NCI), 48 h
For test [1], the system named is SK-MEL-5 melanoma.
For test [2], the system named is OVCAR-3 ovarian.
Test [3] concerns EKVX NSCLC.
Test [4] has as its system NCI-H226 lung.
The test system of test [5] is MALME-3M melanoma.
The subject of test [6] is SK-MEL-2 melanoma.
The subject of test [7] is NCI-H460 lung.
Test [8] has as its system HOP-92 NSCLC.
In test [9] the test system is SF-539 CNS.
Test [10] concerns K-562 leukemia.

As for `CCCC(=O)Nc1cc(C(=O)N2C[C@@H]3C[C@]34C2=CC(=O)c2[nH]cc(C)c24)n(COC)c1`, the TGI in test [1] is 5.38 µM and 3.24 µM; in test [2] it was 24.4 µM and 5.09 µM; in [3], 30 µM and 25.2 µM; in test [4], 42.1 µM; in test [5], 10.9 µM; in test [6] it was 12.2 µM and 3.46 µM. Also, the TGI in test [7] was 16.6 µM and 7.35 µM; in test [8] it was 11.2 µM and 7.85 µM; in test [9] it was 31.1 µM and 5.28 µM; in test [10], 50 µM and > 100 µM. Besides, the GI50 was 2.58 µM in test [2]; 5.62 µM in test [3]; 1.98 µM in [6]; 2.62 µM in test [7]; 3.22 µM in [8]; 2.15 µM in [9]. Also, in [10], the GI50 was 2.04 µM.
In the case of `Oc1ccc(C(c2ccc(O)cc2)c2ccc(Cl)cn2)cc1`, the GI50 was 15.6 µM in test [1]; 0.0266 µM in test [2]; 0.349 µM in test [3]; 1.93 µM in [4]; 24.6 µM in [5]; 4.31 µM in test [6]. Further, the GI50 is 31.6 µM in test [7], 0.266 µM in [8], 13.7 µM in test [9] and 13.5 µM in [10]. The TGI in [1] was 34.5 µM; in test [2], 0.0769 µM; in test [3] it was 6.59 µM; in [4] it was above 45.8 µM; in [5], above 100 µM; in test [6], 60.3 µM. Besides, the TGI in test [7] is above 100 µM; in test [8], 0.947 µM; in test [9], above 100 µM; in [10], above 100 µM.
For `CC1(C)CC[C@H](Nc2ncc(C(F)(F)F)c(-c3c[nH]c4c(P(C)(C)=O)c(C#N)ccc34)n2)CN1`, the GI50 in [1] is 0.0666 µM; in test [2], below 0.0214 µM; in [3], below 0.0113 µM; in test [4], 0.165 µM; in [5], below 0.0128 µM; in test [6] it was 0.283 µM. For the same compound, the GI50 in [7] is below 0.01 µM; in [8], 0.345 µM; in test [9], 0.245 µM; in [10] it was 0.0219 µM. The TGI came out at 2.27 µM in [1]; 4.29 µM in [2]; 9.27 µM in [3]; 6.78 µM in [4]; 13 µM in test [5]; 6.9 µM in test [6]. For the same compound, the TGI is 11.5 µM in test [7], 28.8 µM in test [8], 4.73 µM in test [9] and above 45.9 µM in test [10].
In the case of `O=C(O)[C@@H]1[C@H](C(=O)O)[C@H](C(=O)O)C[C@@H]1C(=O)O`, the TGI in test [1], in test [2], in test [3], in test [4], in [5] and in [6] was above 100 µM throughout. Further, the TGI in test [7], in test [8], in [9] and in test [10] was above 100 µM throughout.
Take `COc1cc(/C=C\c2ccccc2)cc(OC)c1OC`: the TGI in test [1] is 9.12 µM; in [2], 5.58 µM; in test [3], above 84.9 µM; in test [4], 24.1 µM; in test [5], 19.7 µM; in [6] it was 26.2 µM. Further, the TGI in test [7] is 27.3 µM; in test [8], 21.8 µM; in test [9] it was 7.47 µM; in test [10], above 43.2 µM.
For `CCC(=O)O[C@H]1CC[C@H]2[C@@H]3CC[C@H]4CC(=O)[C@H](C)C[C@]4(C)[C@H]3CC[C@]12C`, the GI50 in test [1] is 5.89 µM; in [2] it was 31.2 µM; in [3], 22.1 µM; in test [4] it was above 96.2 µM; in test [5], 45.7 µM; in test [6], 32 µM. The GI50 in [7] is 13 µM; in test [9], above 83.5 µM; in test [10] it was 5.51 µM. Moreover, the TGI was above 60.9 µM in test [1]; above 84.1 µM in test [2]; above 100 µM in test [3]; above 100 µM in [4]; above 100 µM in test [5]; above 100 µM in test [6]. Besides, the TGI in [7] is 97.4 µM; in [8] it was 63 µM; in test [9], above 100 µM; in test [10] it was above 59.5 µM.
Consider `COc1ccc(-c2oc3c(OC)c(OC)c(OC)c(O)c3c(=O)c2OC)cc1OC`, for which the TGI was 41.7 µM in test [1]; above 93.6 µM in test [2]; above 100 µM in test [3]; above 88.7 µM in test [4]; 97.1 µM in test [5]; 66.2 µM in test [6]. The TGI in test [7] was above 83.7 µM; in test [8], 18.4 µM; in [9] it was above 71.4 µM; in test [10] it was above 54.3 µM.
For `C=CCN(/C=C1/C(=O)O[C@H](COC)[C@@]2(C)C1=C(O)C(=O)C1=C2[C@H](OC(C)=O)C[C@]2(C)C(=O)CC[C@@H]12)CC=C`, the GI50 was 3.16 µM in test [1]; 0.562 µM in test [2]; 0.828 µM in [3]; 2.57 µM in test [4]; 0.784 µM in test [5]; 1.22 µM in test [6]. The GI50 is 0.585 µM in test [7], 0.0783 µM in test [8], 0.692 µM in test [9] and above 8.1 µM in [10]. Further, the TGI in [1] was above 10 µM; in test [2] it was above 10 µM; in test [3], above 10 µM; in test [4], above 10 µM; in test [5], above 10 µM; in test [6], above 6.23 µM. The TGI was above 10 µM in test [7], 1.57 µM in test [8], above 5.24 µM in test [9] and above 10 µM in [10].
For `O=C(c1ccc2ccccc2c1)c1c(C(F)(F)F)n([O-])c2cc(F)c(F)cc2[n+]1=O`, the GI50 was 4.84 µM in test [1]; 1.46 µM in test [2]; 2.46 µM in [3]; 4.86 µM in [4]; 1.13 µM in test [5]; 2.16 µM in [6]. Moreover, the GI50 in test [7] is 3.74 µM; in test [8], 1.84 µM; in [9], 2.21 µM; in test [10], 0.314 µM. Moreover, the TGI in [1] was found to be 18.3 µM; in [2], 2.98 µM; in test [3] it was 6.43 µM; in [4], 44.2 µM; in [5], 2.65 µM; in [6], 5.52 µM. The TGI in test [7] was 88.9 µM; in test [8], 3.46 µM; in test [9], 3.98 µM; in test [10], 1.44 µM.
As to `NC1CCCCC1.[O]=[Ge].[O]=[Ge].[O]=[Ge][OH].[O]=[Ge][OH]`, the TGI in [1], in test [2], in [3], in test [4], in test [5] and in test [6] was above 100 µM throughout. Further, the TGI in [7], in test [8], in test [9] and in test [10] was above 100 µM throughout. Further, in test [4], the GI50 is above 100 µM.
For `CCCCC1CC(c2cccc([N+](=O)[O-])c2)=NO1` (configuration not stated), the TGI in [1], in test [2], in test [3], in [4], in test [5] and in test [6] was above 100 µM each time. The TGI in [7], in test [8], in test [9] and in test [10] was above 100 µM throughout.
On to `CCOC(=O)C1=C(c2ccccc2)N(C)c2ccccc2S1`, for which the TGI in test [1] was 30.3 µM; in test [2], above 100 µM; in [3], above 100 µM; in test [4], 54.1 µM; in test [5], above 100 µM; in [6], 45.3 µM. The TGI in [7] is 63.6 µM; in test [8] it was above 100 µM; in test [9] it was above 100 µM; in [10] it was above 100 µM.
`Cc1ccc(/C(=N\N=C(N)N)c2ccccc2)cc1`: the GI50 in test [1] was 0.353 µM; in [2] it was 0.228 µM; in test [3], 0.998 µM; in test [4], 0.726 µM; in test [5], 0.391 µM; in [6], 5.02 µM. The GI50 was 0.33 µM in [7], 1.68 µM in test [8], 0.265 µM in [9] and 0.339 µM in test [10]. Also, the TGI in [1] was found to be 1.73 µM; in [2] it was 0.597 µM; in test [3], 26 µM; in test [4], 10.1 µM; in test [5], 17.3 µM; in test [6], 28.7 µM. The TGI in test [7] is 3.19 µM; in [8] it was 20.2 µM; in test [9] it was 0.925 µM; in test [10] it was above 100 µM.
Turning to `CC(C)C1(O)C(c2ccccc2)=C(c2ccccc2)C(c2ccccc2)=C1c1ccccc1`, the TGI in [1] was 22.4 µM; in test [2] it was 27.8 µM; in [3], 47 µM; in test [4], 31.6 µM; in [5] it was 30.9 µM; in test [6], 18.9 µM. Besides, the TGI in test [7] was 46.8 µM; in [8], 50.2 µM; in [9], 28.6 µM; in test [10] it was above 100 µM.
As to `FC(F)(F)c1cc(-c2nnc3n2N=C(N2CCCC2)CS3)cc(C(F)(F)F)c1`, the GI50 in test [1] was above 50 µM; in [2], 5.27 µM; in test [3], above 50 µM; in [4] it was 24.6 µM; in test [5] it was above 50 µM; in [6], above 50 µM. Besides, the GI50 in [7] is 7.15 µM; in test [8], 25.9 µM; in [9], 34 µM; in test [10] it was above 50 µM. Moreover, the TGI in [1] was above 50 µM; in test [2] it was 28.8 µM; in test [3] it was above 50 µM; in [4], above 50 µM; in test [5], above 50 µM; in [6], above 50 µM. Besides, the TGI in [7], in [8], in [9] and in [10] was above 50 µM in each case.
